In one series the test system is HT-29 cells. Nature of the series: Western blot analysis in HT-29 cells. The format is cell-based, human. The procedure:
SW-480 and HT-29 (3×10^5) cells were seeded in six-well plates in DMEM/Ham's F-12 media containing 2.5% charcoal-stripped FBS for 24 h and then treated with either the vehicle (DMSO) or the indicated compounds. Whole-cell lysates were obtained using high-salt buffer [50 mM HEPES, 500 mM NaCl, 1.5 mM MgCl2, 1 mM EGTA, 10% glycerol, and 1% Triton X-100, pH 7.5, and 5 μl/ml Protease Inhibitor Cocktail (Sigma-Aldrich)]. Protein samples were incubated at 100° C. for 2 min, separated on 10% SDS-PAGE at 120 V for 3 to 4 h in 1× running buffer (25 mM Tris-base, 192 mM glycine, and 0.1% SDS, pH 8.3), and transferred to polyvinylidene difluoride membrane (PVDF; Bio-Rad, Hercules, Calif.) at […] for 16 h at 4° C. in 1× transfer buffer (48 mM Tris-HCl, 39 mM glycine, and 0.025% SDS). The PVDF membrane was blocked in 5% TBST-Blotto (10 mM Tris-HCl, 150 mM NaCl, pH 8.0, 0.05% Triton X-100, and 5% nonfat dry milk) with gentle shaking for 30 min and was incubated in fresh 5% TBST-Blotto with 1:1000 (for caveolin-1, p27, p21, cyclin D1, Grp78), 1:500 (for KLF4, NAG-1), 1:250 (for PARP), and 1:5000 (for β-actin) primary antibody overnight with gentle shaking at 4° C. After washing with TBST for 10 min, the PVDF membrane was incubated with secondary antibody (1:5000) in 5% TBST-Blotto for 90 min. The membrane was washed with TBST for 10 min, incubated with 10 ml of chemiluminescence substrate (PerkinElmer) for 1.0 min, and exposed to Kodak X-OMAT AR autoradiography film (Eastman Kodak, Rochester, N.Y.).
In general terms: A western blot detects proteins with antibodies after separation by electrophoresis.

For series [1], the system named is Panc28 pancreatic cancer cells. Nature of the series: Growth inhibition in Panc28 pancreatic cancer cells. The following applies: Pancreatic cancer cell. The series is classed as cell-based.
The test system of series [2] is LNCaP human prostate carcinoma cells. Nature of the series: Cell proliferation assay in LNCaP cells. The format is cell-based. Particulars: 96 hr, read-out: IC50, inhibition of LNCaP cell growth. As to the method:
Cell lines: LNCaP human prostate carcinoma cells were obtained from American Type Culture Collection (Manassas, Va.). Fetal bovine serum was obtained from JRH Biosciences, Lenexa, Kans. LNCaP cells were maintained in RPMI 1640 (Sigma Chemical, St. Louis, Mo.) supplemented with 0.22% sodium bicarbonate, 0.011% sodium pyruvate, 0.45% glucose, 0.24% HEPES, 10% FBS, and 10 mL/L of 100× antibiotic/antimycotic solution (Sigma). Cells were maintained at 37° C. in the presence of 5% CO2.
Cell Proliferation and DNA Fragmentation Assays: LNCaP prostate cancer cells (2×10^4 per well) were added to 12-well plates and allowed to attach for 24 hr. The medium was then changed to DMEM/Ham's F-12 media containing 2.5% charcoal-stripped FBS, and either vehicle (DMSO) or the indicated C-DIMs were added. Fresh medium and indicated compounds were added every 48 hr, and cells were then trypsinized and counted after 2, 4, and 6 days using a Coulter Z1 cell counter (Beckman Coulter, Fullerton, Calif.). Each experiment was done in triplicate, and results are expressed as means±S.E. for each set of three experiments. The DNA fragmentation assay was performed using a BioVision Apoptotic DNA ladder extraction kit (BioVision, Mountain View, Calif.) according to the manufacturer's protocol.

Series [3] relates to Sp1, Sp3 and Sp4 in liver. Nature of the series: Sp protein expression in non-target tissue (liver) of treated mice. The series is classed as in vivo. The following applies: preliminary results. An excerpt: (i) Animal treatment: Male athymic nude mice are obtained from commercial sources and their use approved by the Institutional Animal Care and Use Committee. Ten animals are used for each treatment group and based on consultation with biostatisticians, this number is sufficient for determining statistical significance between treatment groups (41, 42). At least one AR-positive (LNCaP/22Rv1) and AR-negative (PC3/DU145) prostate cancer cell line is used in the xenograft study. Cells are harvested by exposure to trypsin and resuspended in serum-free Hanks' balanced salt solution (HBSS). […] In addition, Western blot analysis of Sp proteins, proapoptotic and antiangiogenic responses is determined on whole cell lysates from compound- and corn oil (vehicle)-treated tumors. Where possible (depending on the amount of protein extracted), the effects of the compound versus corn oil on expression of these proteins is quantitated and statistically analyzed. In addition, the effects of the compound on Sp protein expression in non-target tissue (e.g. liver and kidney) is determined. […] Immunostaining for Sp1, Sp3 and Sp4 and for angiogenic (VEGF, VEGFR1 and VEGFR2) and apoptotic (cleaved PARP, activated caspase 3, survivin and TUNEL) proteins/responses are determined as described above.

A word on the IC50: it is the concentration at which inhibition is half-maximal.

As for `COC(=O)[C@@]1(C)CC[C@]2(C)CC[C@]3(C)C(=CC(=O)[C@@H]4[C@@]5(C)C=C(C#N)C(=O)C(C)(C)[C@@H]5CC[C@]43C)[C@@H]2C1` [β-CDODA-Me, Methyl 2-cyano-3,11-dioxo-18β-oleana-1,12-dien-30-oate], in the series on HT-29 cells (HT-29, 24 hours), the “NAG-1 and KLF4 proteins” value was “induction of NAG-1 and KLF4 proteins”; the PARP cleavage entry is given as “induction of PARP cleavage”. In the series on HT-29 cells (HT-29, 24 hours, higher (5 μM) concentration), the NAG-1 protein levels result is on record as “decreased”. Further, the “induction of NAG-1 and PARP cleavage after cotreatment with T007” value in the series on HT-29 cells (HT-29, 24 hr) is “not affected”. In the series with HT-29 cells (HT-29, 24 hr, 10 μM T007), the “KLF-4 induction after cotreatment with T007” value is on record as “blocks this induction response”. Further, the caveolin-1 entry with HT-29 cells (HT-29, 3 days) is on record as “induction of caveolin-1”. The “induction of caveolin-1 after cotreatment with T007” value in the series on HT-29 cells (HT-29, 96 hr, 10 μM T007) is “inhibited”. Further, in series [1], the IC50 was 1 to 2.5 µM. Further, in series [2], the IC50 was roughly 1 µM. In addition, in series [3], the “Sp1, Sp3 and Sp4 expression in liver” value was “unaffected”.
